± gives the uncertainty stated by the source.
Assay: xn = mol fraction of the nth substance listed

CCCBr + C1CCCCC1
308.15 K, 101 kPa
Conditions	viscosity [mPa·s]
x2 = 0.0957	0.4455 ± 0.0038
x2 = 0.1997	0.46 ± 0.0038
x2 = 0.2991	0.4715 ± 0.0038
x2 = 0.4983	0.516 ± 0.0039
x2 = 0.6052	0.5432 ± 0.004
x2 = 0.7135	0.5889 ± 0.0042
x2 = 0.801	0.6197 ± 0.0043
x2 = 0.9011	0.6872 ± 0.0047

CCCCCCCCNCCCCCCCC + C1CCCCC1
303.15 K, 101 kPa
Conditions	viscosity [mPa·s]
x2 = 0.1052	3.382 ± 0.068
x2 = 0.2021	3.137 ± 0.063
x2 = 0.3028	2.95 ± 0.059
x2 = 0.4044	2.591 ± 0.052
x2 = 0.5039	2.306 ± 0.046
x2 = 0.6016	1.976 ± 0.04
x2 = 0.7009	1.653 ± 0.033
x2 = 0.8006	1.364 ± 0.027
x2 = 0.9216	1.055 ± 0.021

CC(C)(C)O + C1COCCO1
298.15 K, 101 kPa
Conditions	viscosity [mPa·s]
x2 = 0.0878	2.941 ± 0.072
x2 = 0.1776	2.179 ± 0.05
x2 = 0.2717	1.773 ± 0.037
x2 = 0.3647	1.496 ± 0.029
x2 = 0.4695	1.304 ± 0.023
x2 = 0.571	1.197 ± 0.019
x2 = 0.6659	1.134 ± 0.016
x2 = 0.7778	1.114 ± 0.014
x2 = 0.791	1.111 ± 0.014
x2 = 0.8424	1.11 ± 0.013
x2 = 0.8786	1.118 ± 0.012

CC1OC(C)OC(C)O1 (configuration not stated) + CC1COC(=O)O1
viscosity [mPa·s], 101.3 kPa
Conditions	x1 = 0.091	x1 = 0.2019	x1 = 0.3007	x1 = 0.4055	x1 = 0.5011	x1 = 0.6022	x1 = 0.7006	x1 = 0.8028	x1 = 0.9028
293.15 K	2.641 ± 0.043	2.499 ± 0.041	2.364 ± 0.039	2.215 ± 0.038	2.07 ± 0.036	1.91 ± 0.034	1.75 ± 0.031	1.577 ± 0.029	1.402 ± 0.026
298.15 K	–	–	–	–	–	–	–	1.412 ± 0.026	1.26 ± 0.024
303.15 K	2.161 ± 0.035	2.027 ± 0.033	1.907 ± 0.032	1.779 ± 0.03	1.661 ± 0.029	1.531 ± 0.027	1.402 ± 0.025	1.268 ± 0.023	1.134 ± 0.021
308.15 K	1.969 ± 0.032	1.843 ± 0.031	1.732 ± 0.029	1.614 ± 0.028	1.505 ± 0.026	1.385 ± 0.025	1.267 ± 0.023	1.144 ± 0.021	1.024 ± 0.019

COCCOCCOCCO + CC1COC(=O)O1
298.15 K, 101.33 kPa
Conditions	viscosity [mPa·s]
x1 = 0.0048	2.514 ± 0.019
x1 = 0.015	2.563 ± 0.02
x1 = 0.0231	2.601 ± 0.02
x1 = 0.0338	2.645 ± 0.021
x1 = 0.0436	2.701 ± 0.021
x1 = 0.0626	2.807 ± 0.022
x1 = 0.0855	2.896 ± 0.023
x1 = 0.1268	3.064 ± 0.026
x1 = 0.1715	3.253 ± 0.028
x1 = 0.2173	3.462 ± 0.031
x1 = 0.2578	3.648 ± 0.034
x1 = 0.2932	3.814 ± 0.037
x1 = 0.3343	4.013 ± 0.04
x1 = 0.3636	4.167 ± 0.043
x1 = 0.406	4.368 ± 0.046
x1 = 0.445	4.559 ± 0.05
x1 = 0.4717	4.699 ± 0.052
x1 = 0.5024	4.844 ± 0.055
x1 = 0.5261	4.965 ± 0.058
x1 = 0.5629	5.143 ± 0.061
x1 = 0.6084	5.347 ± 0.066
x1 = 0.6548	5.581 ± 0.071
x1 = 0.6969	5.687 ± 0.074
x1 = 0.7326	5.831 ± 0.078
x1 = 0.7667	5.978 ± 0.082
x1 = 0.8023	6.05 ± 0.085
x1 = 0.8213	6.09 ± 0.086
x1 = 0.84	6.121 ± 0.088
x1 = 0.8547	6.173 ± 0.089
x1 = 0.88	6.194 ± 0.091
x1 = 0.8997	6.201 ± 0.092
x1 = 0.9173	6.208 ± 0.094

COCCOCCOCCOC + CC1COC(=O)O1
298.15 K, 101.33 kPa
Conditions	viscosity [mPa·s]
x1 = 0.0049	2.492 ± 0.019
x1 = 0.0113	2.496 ± 0.019
x1 = 0.0249	2.504 ± 0.019
x1 = 0.0352	2.516 ± 0.019
x1 = 0.0525	2.523 ± 0.019
x1 = 0.0833	2.536 ± 0.019
x1 = 0.1358	2.56 ± 0.019
x1 = 0.1928	2.568 ± 0.019
x1 = 0.2559	2.561 ± 0.019
x1 = 0.3083	2.543 ± 0.019
x1 = 0.3356	2.539 ± 0.019
x1 = 0.393	2.494 ± 0.019
x1 = 0.466	2.444 ± 0.019
x1 = 0.4902	2.428 ± 0.018
x1 = 0.5272	2.402 ± 0.018
x1 = 0.5728	2.361 ± 0.018
x1 = 0.6242	2.308 ± 0.018
x1 = 0.6786	2.254 ± 0.017
x1 = 0.7038	2.227 ± 0.017
x1 = 0.8165	2.127 ± 0.016
x1 = 0.8598	2.088 ± 0.016
x1 = 0.8959	2.047 ± 0.016
x1 = 0.9347	2.021 ± 0.015
x1 = 0.964	1.99 ± 0.015

CC(C)(C)O + CC#N
viscosity [mPa·s]
Conditions	298.15 K	303.15 K	308.15 K	313.15 K
101 kPa, x1 = 0.0566	0.3785 ± 0.0041	0.3701 ± 0.004	0.3589 ± 0.0039	–
101 kPa, x1 = 0.1198	0.4021 ± 0.0043	0.3935 ± 0.0042	0.3794 ± 0.0041	–
101 kPa, x1 = 0.1887	0.4346 ± 0.0046	0.4229 ± 0.0045	0.4056 ± 0.0043	–
101 kPa, x1 = 0.2685	0.4818 ± 0.005	0.461 ± 0.0048	0.4406 ± 0.0046	–
101 kPa, x1 = 0.3568	0.5555 ± 0.0056	0.5226 ± 0.0053	0.4902 ± 0.0051	–
101 kPa, x1 = 0.4511	0.6735 ± 0.0067	0.6105 ± 0.0061	0.5659 ± 0.0057	–
101 kPa, x1 = 0.5606	0.9097 ± 0.0087	0.8128 ± 0.0079	0.7495 ± 0.0073	–
101 kPa, x1 = 0.6858	1.341 ± 0.012	1.18 ± 0.011	1.058 ± 0.01	–
101 kPa, x1 = 0.831	2.213 ± 0.02	1.884 ± 0.017	1.63 ± 0.015	–
101.3 kPa, x2 = 0.1675	1.925 ± 0.045	1.606 ± 0.038	1.359 ± 0.032	1.158 ± 0.028
101.3 kPa, x2 = 0.3117	1.187 ± 0.029	1.035 ± 0.026	0.909 ± 0.023	0.805 ± 0.021
101.3 kPa, x2 = 0.4368	0.863 ± 0.022	0.756 ± 0.02	0.68 ± 0.018	0.615 ± 0.016
101.3 kPa, x2 = 0.5471	0.66 ± 0.017	0.604 ± 0.016	0.553 ± 0.015	0.509 ± 0.014
101.3 kPa, x2 = 0.6446	0.552 ± 0.015	0.511 ± 0.014	0.474 ± 0.013	0.442 ± 0.013
101.3 kPa, x2 = 0.73	0.476 ± 0.013	0.446 ± 0.013	0.418 ± 0.012	0.394 ± 0.012
101.3 kPa, x2 = 0.8084	0.428 ± 0.012	0.404 ± 0.012	0.382 ± 0.011	0.362 ± 0.011
101.3 kPa, x2 = 0.8784	0.394 ± 0.012	0.375 ± 0.011	0.357 ± 0.011	0.34 ± 0.011
101.3 kPa, x2 = 0.9421	0.376 ± 0.011	0.359 ± 0.011	0.342 ± 0.011	0.33 ± 0.01

CCCCOC(=O)c1ccccc1 + CC#N
viscosity [mPa·s], 101.33 kPa
Conditions	x1 = 0.125	x1 = 0.244	x1 = 0.355	x1 = 0.463	x1 = 0.563	x1 = 0.654	x1 = 0.75	x1 = 0.83	x1 = 0.919
293.15 K	0.446 ± 0.005	0.486 ± 0.005	0.533 ± 0.005	0.629 ± 0.006	0.762 ± 0.006	0.956 ± 0.007	1.173 ± 0.008	1.57 ± 0.01	2.131 ± 0.013
303.15 K	0.402 ± 0.005	0.434 ± 0.005	0.472 ± 0.005	0.551 ± 0.005	0.655 ± 0.006	0.808 ± 0.006	0.979 ± 0.007	1.27 ± 0.008	1.69 ± 0.01
313.15 K	0.364 ± 0.005	0.392 ± 0.005	0.424 ± 0.005	0.483 ± 0.005	0.567 ± 0.005	0.696 ± 0.006	0.825 ± 0.006	1.056 ± 0.007	1.368 ± 0.009
323.15 K	0.313 ± 0.005	0.352 ± 0.005	0.382 ± 0.005	0.43 ± 0.005	0.461 ± 0.005	0.603 ± 0.006	0.667 ± 0.006	0.9 ± 0.007	1.119 ± 0.008
